In patent US9676760B2, “Fused heterocyclic compounds as ion channel modulators” (Gilead Sciences, Inc., priority 2011, dated 2017):
Where two headings read alike, the source gives them in different places.

Columns and labels:
hERG potassium channel = hERG potassium channel (Homo sapiens, UniProt Q12809); assay: hERG screening assay (PatchXpress, CHO cells); type: cell-based; parameters: hERG: unit not given here
Method: Compounds were also tested for their effect to block the hERG K^+ channel.
Compounds were screened to test their activity in blocking the hERG potassium channel at AVIVA Biosciences (San Deigo, Calif., USA). The hERG channel is heterologously expressed in a CHO (Chinese Hamster Ovary) cell line. Cells were maintained with standard tissue culture procedures and stable channel expression was maintained with 500 μg/mL G418 in the culture medium. Cells were harvested for testing on the PatchXpress 7000A automated patch clamp with Accumax (Innovative Cell Technologies, San Diego, Calif.) to isolate single cells.
The following solutions were used for electrophysiological recordings. The external solution contained: 2 mM CaCl2; 2 mM MgCl2; 4 mM KCl; 150 mM NaCl; 10 mM Glucose; 10 mM HEPES (pH 7.4 with 1M NaOH; osmolarity, ˜310 mOsm).
hERG channels were activated when the voltage was first stepped to −50 mV for 300 ms from the −80 mV holding potential and then stepped to +20 mV for 5 seconds. At +20 mV the channels open and then largely inactivate, so the currents are relatively small. Upon returning to −50 mV from +20 mV, hERG currents transiently become much larger as inactivation is rapidly removed and then the channel closes. The first step to −50 mV for 300 ms was used as a baseline for measuring the peak amplitude during the step to −50 mV after channel activation. The peak tail current at −50 mV was measured both under control conditions and after addition of compound, each cell serving as its own control.
All compounds were prepared as 10 mM DMSO stocks in glass vials. Stock solutions were mixed by vigorous vortexing and sonication for about 2 minutes at room temperature. For testing, compounds were diluted in glass vials using an intermediate dilution step in pure DMSO and then further diluted to working concentrations in external solution. Dilutions were prepared no longer than 20 minutes before use.
For the electrophysiological recordings, after achieving the whole-cell configuration, cells were monitored for 90 seconds to assess stability and washed with external solution for 66 seconds. The voltage protocol described above was then applied to the cells every 12 seconds and throughout the whole procedure. Only cells with stable recording parameters and meeting specified health criteria were allowed to enter the compound addition procedure.
External solution containing 0.1% DMSO (vehicle) was applied to the cells first to establish the control peak current amplitude. After allowing the current to stabilize for 3 to 5 minutes, 1 μM and then 10 μM test compounds were applied. Each compound concentration was added 4 times and cells were kept in test solution until the effect of the compound reached steady state or for a maximum of 12 minutes. […] Washout in the external solution compartment was performed until the recovery of the current reached steady state.

[1] = biological target: wild-type human cardiac sodium channel, hNav1.5 (Homo sapiens, UniProt Q14524); assay: Peak INa screening assay (tonic and use-dependent block); type: cell-based; conditions: for inhibition at 1 µM: compound at 1 μM
Sequence of wild-type human cardiac sodium channel, hNav1.5 (Q14524 whole entry): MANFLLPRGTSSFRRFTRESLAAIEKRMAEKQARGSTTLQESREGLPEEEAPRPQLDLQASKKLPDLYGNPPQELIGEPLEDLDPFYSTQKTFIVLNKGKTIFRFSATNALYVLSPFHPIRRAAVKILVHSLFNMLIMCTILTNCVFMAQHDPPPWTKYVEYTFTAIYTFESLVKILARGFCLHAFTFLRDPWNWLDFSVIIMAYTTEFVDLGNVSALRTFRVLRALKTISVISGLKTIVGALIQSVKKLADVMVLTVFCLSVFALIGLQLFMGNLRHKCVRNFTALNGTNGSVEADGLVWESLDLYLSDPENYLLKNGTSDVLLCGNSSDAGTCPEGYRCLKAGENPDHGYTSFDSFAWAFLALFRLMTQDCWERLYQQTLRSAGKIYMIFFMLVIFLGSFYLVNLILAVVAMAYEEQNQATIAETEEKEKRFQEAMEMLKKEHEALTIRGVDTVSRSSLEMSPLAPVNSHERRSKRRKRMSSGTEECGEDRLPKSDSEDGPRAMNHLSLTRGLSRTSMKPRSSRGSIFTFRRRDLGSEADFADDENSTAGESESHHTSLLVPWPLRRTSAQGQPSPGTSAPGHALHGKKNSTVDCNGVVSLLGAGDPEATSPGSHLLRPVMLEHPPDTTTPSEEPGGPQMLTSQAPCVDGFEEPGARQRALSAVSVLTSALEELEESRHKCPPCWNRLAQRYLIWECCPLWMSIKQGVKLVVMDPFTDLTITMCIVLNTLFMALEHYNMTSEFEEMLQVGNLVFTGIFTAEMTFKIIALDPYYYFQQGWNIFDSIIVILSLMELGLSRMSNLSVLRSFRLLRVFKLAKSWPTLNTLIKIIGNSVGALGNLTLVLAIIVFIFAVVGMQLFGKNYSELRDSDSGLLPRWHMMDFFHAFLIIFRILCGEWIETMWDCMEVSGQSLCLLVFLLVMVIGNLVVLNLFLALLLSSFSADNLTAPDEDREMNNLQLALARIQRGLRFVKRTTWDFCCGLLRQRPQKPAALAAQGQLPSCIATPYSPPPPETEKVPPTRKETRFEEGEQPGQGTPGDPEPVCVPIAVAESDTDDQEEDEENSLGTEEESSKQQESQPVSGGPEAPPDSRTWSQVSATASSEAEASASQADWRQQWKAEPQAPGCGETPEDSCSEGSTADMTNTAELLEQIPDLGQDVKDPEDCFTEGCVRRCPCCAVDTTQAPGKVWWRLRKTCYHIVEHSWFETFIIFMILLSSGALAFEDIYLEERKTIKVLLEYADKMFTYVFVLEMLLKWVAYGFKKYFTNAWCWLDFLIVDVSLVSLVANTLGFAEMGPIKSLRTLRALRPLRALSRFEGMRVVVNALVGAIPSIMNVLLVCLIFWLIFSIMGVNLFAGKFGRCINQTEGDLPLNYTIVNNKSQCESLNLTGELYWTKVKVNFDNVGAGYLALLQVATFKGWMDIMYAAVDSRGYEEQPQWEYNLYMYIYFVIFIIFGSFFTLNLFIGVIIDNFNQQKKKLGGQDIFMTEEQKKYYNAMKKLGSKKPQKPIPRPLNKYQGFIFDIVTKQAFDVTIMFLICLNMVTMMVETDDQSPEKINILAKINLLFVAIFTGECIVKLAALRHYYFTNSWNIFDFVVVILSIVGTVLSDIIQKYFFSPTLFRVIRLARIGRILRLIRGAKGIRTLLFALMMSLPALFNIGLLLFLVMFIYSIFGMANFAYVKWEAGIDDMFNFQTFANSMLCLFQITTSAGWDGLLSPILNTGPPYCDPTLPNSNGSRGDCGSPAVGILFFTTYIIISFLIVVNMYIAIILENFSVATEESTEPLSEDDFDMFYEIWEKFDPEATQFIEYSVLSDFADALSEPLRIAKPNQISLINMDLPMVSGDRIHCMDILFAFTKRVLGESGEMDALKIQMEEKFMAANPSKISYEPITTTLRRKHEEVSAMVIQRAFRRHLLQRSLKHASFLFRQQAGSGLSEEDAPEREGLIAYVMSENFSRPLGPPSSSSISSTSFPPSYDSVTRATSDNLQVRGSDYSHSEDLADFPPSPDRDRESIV
Outline: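 Whole-cell automated patch clamp (QPatch) at 23–25°C on HEK293 cells stably expressing hNav1.5 alpha subunit only, with CsF/CsCl pipette solution, pH 7.4. Compound at 1 μM in extracellular solution; bath Na+ could be cut to 20 mM with a nonpermeant cation. Tonic block measured at 0.1 Hz, use-dependent block at 3 Hz.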

[2] = tonic block of peak INa, 0.1 Hz, read-out: Peak TB 1 μM
[3] = use-dependent block of peak INa, 3 Hz, read-out: Peak UDB 1 μM

Sequence of hERG potassium channel (Q12809 whole entry): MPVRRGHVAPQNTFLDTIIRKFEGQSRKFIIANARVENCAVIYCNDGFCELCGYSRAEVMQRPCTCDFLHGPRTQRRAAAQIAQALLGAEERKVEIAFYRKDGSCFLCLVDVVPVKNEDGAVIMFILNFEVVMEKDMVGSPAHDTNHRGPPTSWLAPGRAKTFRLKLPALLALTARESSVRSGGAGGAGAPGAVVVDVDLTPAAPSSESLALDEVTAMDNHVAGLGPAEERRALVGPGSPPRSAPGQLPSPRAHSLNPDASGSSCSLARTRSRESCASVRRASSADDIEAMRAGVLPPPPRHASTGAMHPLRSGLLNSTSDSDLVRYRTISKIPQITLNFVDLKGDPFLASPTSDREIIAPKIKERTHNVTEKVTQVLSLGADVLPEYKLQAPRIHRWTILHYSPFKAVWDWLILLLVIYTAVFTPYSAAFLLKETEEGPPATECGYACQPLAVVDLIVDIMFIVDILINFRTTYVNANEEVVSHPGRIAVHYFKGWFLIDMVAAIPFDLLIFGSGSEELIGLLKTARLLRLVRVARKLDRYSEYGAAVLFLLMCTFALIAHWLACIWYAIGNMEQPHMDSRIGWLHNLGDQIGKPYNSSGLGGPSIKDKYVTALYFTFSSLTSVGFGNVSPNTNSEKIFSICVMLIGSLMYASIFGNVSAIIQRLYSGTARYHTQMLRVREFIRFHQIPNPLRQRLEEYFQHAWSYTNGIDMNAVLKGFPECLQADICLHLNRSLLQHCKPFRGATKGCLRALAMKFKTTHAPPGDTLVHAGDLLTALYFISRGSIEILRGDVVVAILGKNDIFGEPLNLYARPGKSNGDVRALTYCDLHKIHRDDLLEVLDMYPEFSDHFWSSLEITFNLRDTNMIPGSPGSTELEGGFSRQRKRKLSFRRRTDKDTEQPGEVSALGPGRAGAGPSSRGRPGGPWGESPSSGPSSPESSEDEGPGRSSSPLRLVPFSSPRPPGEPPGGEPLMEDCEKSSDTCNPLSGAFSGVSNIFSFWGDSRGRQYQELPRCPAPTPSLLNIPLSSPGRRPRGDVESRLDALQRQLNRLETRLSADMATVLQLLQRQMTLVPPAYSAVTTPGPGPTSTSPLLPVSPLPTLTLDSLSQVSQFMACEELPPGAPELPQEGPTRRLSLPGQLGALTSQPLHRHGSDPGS

Molecule CC(C)(C)c1ccc(-c2ccc3c(c2)C(=O)N(Cc2ncccn2)CCO3)cc1 [II-98, 7-(4-tert-butylphenyl)-4-(pyrimidin-2-ylmethyl)-3,4-dihydrobenzo[f][1,4]oxazepin-5(2H)-one] has a hERG (hERG potassium channel) of less than 10.

O=C1c2cc(-c3ccc(Cl)cc3)ccc2OCCN1Cc1ncccn1 [II-88, 7-(4-chlorophenyl)-4-(pyrimidin-2-ylmethyl)-3,4-dihydrobenzo[f][1,4]oxazepin-5(2H)-one] was tested, and the hERG (hERG potassium channel) was 26.

In the case of O=C1c2cc(C#Cc3ccc(C(F)(F)F)cc3)ccc2OCCN1Cc1ncccn1 [VIII-6, 4-(pyrimidin-2-ylmethyl)-7-((4-(trifluoromethyl)phenyl)ethynyl)-3,4-dihydrobenzo[f][1,4]oxazepin-5(2H)-one], the hERG (hERG potassium channel) is reported as less than 10.

Work on O=C1c2cc(-c3ccc(C(F)(F)F)cc3Cl)ccc2OCCN1Cc1ncccn1 [II-110, 7-(2-chloro-4-(trifluoromethyl)phenyl)-4-(pyrimidin-2-ylmethyl)-3,4-dihydrobenzo[f][1,4]oxazepin-5(2H)-one] yielded a hERG (hERG potassium channel) of 26.

O=C1c2cc(-c3ccc(C(F)(F)F)cc3)ccc2OCCN1Cc1cn2ccccc2n1 [II-129, 4-(imidazo[1,2-a]pyridin-2-ylmethyl)-7-(4-(trifluoromethyl)phenyl)-3,4-dihydrobenzo[f][1,4]oxazepin-5(2H)-one] gave a hERG (hERG potassium channel) of 17.

With O=C1c2cc(-c3ccc(C(F)(F)F)cc3F)ccc2OCCN1Cc1ncccn1 [II-105, 7-(2-fluoro-4-(trifluoromethyl)phenyl)-4-(pyrimidin-2-ylmethyl)-3,4-dihydrobenzo[f][1,4]oxazepin-5(2H)-one] the “peak INa TB” value ([1]; measured at 1 μM) was 9%, the “peak INa UDB” value ([1]; measured at 1 μM) was 11% and the inhibition at 1 µM [1, 2] was 9%. For the same molecule, the inhibition at 1 µM [1, 3] was 11%, the hERG (hERG potassium channel) was less than 10 and the “inhibited (or reduced) the activity of the hERG potassium channel” value (hERG potassium channel; at 1 μM) was less than 10%.

Work on O=C1c2cc(-c3ccc(Cl)cc3F)ccc2OCCN1Cc1ncccn1 [II-117, 7-(4-chloro-2-fluorophenyl)-4-(pyrimidin-2-ylmethyl)-3,4-dihydrobenzo[f][1,4]oxazepin-5(2H)-one] yielded a hERG (hERG potassium channel) of less than 10.

In the case of O=C1CN(Cc2ccccc2)C(=O)c2cc(-c3ccc(C(F)(F)F)cc3)ccc2N1 [Compound X-8, 4-benzyl-7-(4-(trifluoromethyl)phenyl)-3,4-dihydro-1H-benzo[e][1,4]diazepine-2,5-dione], the inhibition at 1 µM [1, 2] is reported as 6%, the inhibition at 1 µM [1, 3] is reported as 10% and the hERG (hERG potassium channel) is reported as less than 10.

Molecule O=C1c2cc(-c3ccc(C(F)(F)F)cc3)ccc2OC[C@H]2CN(CC(F)F)CCN12 [II-22, (R)-2-(2,2-difluoroethyl)-8-(4-(trifluoromethyl)phenyl)-3,4,12,12a-tetrahydro-1H-benzo[f]pyrazino[2,1-c][1,4]oxazepin-6(2H)-one] has a hERG (hERG potassium channel) of 16.

With O=C1c2cc(-c3ccc(C(F)(F)F)cc3)ccc2OC[C@H]2CN(CC(F)(F)F)CCN12 [II-83, (R)-2-(2,2,2-trifluoroethyl)-8-(4-(trifluoromethyl)phenyl)-3,4,12,12a-tetrahydro-1H-benzo[f]pyrazino[2,1-c][1,4]oxazepin-6(2H)-one] the hERG (hERG potassium channel) was 21.

O=C(c1ncccn1)N1CCOc2ccc(-c3ccc(OC(F)(F)F)cc3)cc2C1 [III-1, pyrimidin-2-yl(7-(4-(trifluoromethoxy)phenyl)-2,3-dihydrobenzo[f][1,4]oxazepin-4(5H)-yl)methanone] gave a hERG (hERG potassium channel) of less than 10.

Molecule O=C1c2cc(C#Cc3ccc(OC(F)(F)F)cc3)ccc2OCCN1Cc1ncccn1 [VIII-4, 4-(pyrimidin-2-ylmethyl)-7-((4-(trifluoromethoxy)phenyl)ethynyl)-3,4-dihydrobenzo[f][1,4]oxazepin-5(2H)-one] has an inhibition at 1 µM [1, 2] of 12%, an inhibition at 1 µM [1, 3] of 19% and a hERG (hERG potassium channel) of 30.
